From patent US5972939A, “Cyclopentene derivatives useful as antagonists of the motilin receptor” (Ortho-McNeil Pharmaceutical, Inc., priority 1998, dated 1999)

Tests used:
[1] = test system: rabbit duodenum smooth muscle (motilin and erythromycin induced contractions); test: inhibition of motilin (porcine) induced contractions in rabbit duodenum smooth muscle; format: cell-based; settings: Oryctolagus cuniculus; @ 1.0 μM
Method: Select compounds of the invention were evaluated for their ability to inhibit motilin and erythromycin induced contractions in the rabbit duodenum smooth muscle. Rabbits were fasted 24-48 h and euthanized. The venral midline incision was made approximately 7.5 cm above the umbilicus upto the xyphoid process, exposing the upper peritoneal cavity. The first 8 cm. of the duodenum starting at the pyloric valve was quickly removed and placed in Krebs solution containing NaCl, ([…]), KCl (4.7 mM), MgSO4 *7 H2 O (1.2 mM), CaCl2 *2 H2 O (2.4 mM), KH2 PO4 (1 mM), D-glucose (10 mM), and NaHCO3 (24 mM). The lumen was flushed with Krebs and excess tissue was removed. The tissue was cut lengthwise, splayed open with the longitudinal muscle layer facing up, and the longitudinal muscle layer was released away from the circular muscle and cut into 3×30 mm strips. A pre-tied 4-0 silk ligature with a loop was placed at the middle of the strip and the strip was folded over the loop so the strip was half its original length. The tissues were mounted in a 10 mL tissue bath (Radnotti Glass Technology, Inc., Monrovia, Calif.) containing Krebs solution gassed with 95% O2 5% CO2 at 37° C. […] The tissues were allowed to equilibrate for 60-90 min with 2-3 wash cycles. The tissues were equilibrated with two initial contractions induced by a concentration of acetylcholine (1×10^-4 M) that produced a maximal contraction (0.1 mM), with the highest taken as 100% maximall contraction of that tissue. Base line and response levels are expressed as grams tension developed and as a percent of the response to acetylcholine. The test compounds were dissolved in DMSO (2 mM/100% DMSO) and applied to the prepared strips 5-15 minutes prior to the addition of porcine motilin. After addition, the tension is constantly monitored over 5 min and the maximum tension is recorded. The percent contraction was measured at four ascending concentrations and where appropriate IC50s were determined.

[2] = molecular target: T1, motilin receptors located on the colon of mature rabbits (Oryctolagus cuniculus, UniProt G1T803); test: competition with radiolabeled (125I) porcine motilin for the motilin receptors of rabbit colon; format: binding; settings: for IC50: rabbit colon, 125I motilin, read-out: IC50
T1 construct: The colon from mature New Zealand rabbits was removed, dissected free from the mucosa and serosa layers, and diced into small pieces; from tissue; host or cells: colon smooth muscle of mature New Zealand rabbits, crude membrane homogenate
T1 sequence (G1T803 1-400): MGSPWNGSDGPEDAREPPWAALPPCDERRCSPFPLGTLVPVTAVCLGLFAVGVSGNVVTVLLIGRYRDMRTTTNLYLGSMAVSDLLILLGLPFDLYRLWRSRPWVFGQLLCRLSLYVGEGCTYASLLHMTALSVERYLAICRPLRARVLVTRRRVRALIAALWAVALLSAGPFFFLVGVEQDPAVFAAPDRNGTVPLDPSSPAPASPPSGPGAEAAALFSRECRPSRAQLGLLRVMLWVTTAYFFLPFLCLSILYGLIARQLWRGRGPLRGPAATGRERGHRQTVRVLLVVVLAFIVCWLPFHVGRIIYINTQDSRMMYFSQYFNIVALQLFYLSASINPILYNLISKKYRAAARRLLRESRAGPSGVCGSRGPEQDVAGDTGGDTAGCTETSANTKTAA
Method: The compounds of the invention were tested for their ability to compete with radiolabeled motilin (porcine) for the motilin receptors located on the colon of mature rabbits. The colon from mature New Zealand rabbits was removed, dissected free from the mucosa and serosa layers, and diced into small pieces. […] The homogenate was centrifuged at 1000×g for 15 min. and the supernatant discarded. The pellet was washed twice before being suspended in homogenizing buffer. This crude homogenate is then passed first through a 19 gauge needle then a 23 gauge needle to further suspend the material and stored as -80° C. […] After 30 min, at 30° C., the material was cooled on ice and centrifuged at 13,000×g for 1 minute. The pellet was washed with 1 mL 0.9% saline and centrifuged at 13,000×g for 15 seconds. The pellet was washed again with cold saline and the supernatant was removed. The pellet was counted in the gamma counter to determine the percentage of […] motilin and thereby the percent inhibition of the test compound. IC50s were determined for some compounds by standard techniques.

[3] = test system: motilin receptor; settings: Weber et al. 1993; cited from earlier work
[4] = test system: smooth muscle in the stomach tissue of dogs, rabbits, and humans and in the colon of rabbits; settings: cited from earlier work
[5] = test system: humans; settings: intravenous, Christofides et al. 1979; cited from earlier work

Row | IC50 [2] [nM] | Compound | inhibition at 1 µM [1] [%] | other results
1 | 56 | COc1ccc(CC2(NC(=O)C(Cl)(Cl)Cl)C=C(CN(C(=O)c3ccc(F)cc3)c3cccc(OCCN4CCOCC4)c3)CC2)cc1 (centres unmarked) [Compound 65] | 72 | –
2 | 56 | COc1ccc(CC2(NC(=O)C(Cl)(Cl)Cl)C=C(CN(C(=O)c3ccccc3)c3cccc(OCCN4CCOCC4)c3)CC2)cc1 (centres unmarked) [Compound 66] | 58 | –
3 | – | O=C(Nc1ccccc1)N(CC1=CC(Cc2ccc(F)cc2)(NC(=O)C(Cl)(Cl)Cl)CC1)c1cccc(OCCN2CCOCC2)c1 (centres unmarked) [Compound 67] | 25.7 | inhibition at 0.25 µM ([2]; @ 0.25 μM): 34%
4 | – | O=C(Nc1ccccc1)N(CC1=CC(Cc2cccc(Cl)c2)(NC(=O)C(Cl)(Cl)Cl)CC1)c1cccc(OCCN2CCOCC2)c1 (centres unmarked) [Compound 68] | 51 | inhibition at 0.1 µM ([2]; @ 0.1 μM): 70%
5 | – | CC[C@H]1OC(=O)[C@H](C)[C@@H](O[C@H]2C[C@@](C)(OC)[C@@H](O)[C@H](C)O2)[C@H](C)[C@@H](O[C@@H]2O[C@H](C)C[C@H](N(C)C)[C@H]2O)[C@](C)(O)C[C@@H](C)C(=O)[C@H](C)[C@@H](O)[C@]1(C)O [erythromycin] | – | biological responses compared with motilin [3]: elicits biological responses that are comparable to motilin itself
6 | – | CC[C@H](C)[C@H](NC(=O)[C@@H]1CCCN1C(=O)[C@@H](NC(=O)[C@@H](N)Cc1ccccc1)C(C)C)C(=O)N[C@@H](Cc1ccccc1)C(=O)N[C@H](C(=O)N[C@@H](Cc1ccc(O)cc1)C(=O)NCC(=O)N[C@@H](CCC(=O)O)C(=O)N[C@@H](CC(C)C)C(=O)N[C@@H](CCC(N)=O)C(=O)N[C@@H](CCCNC(=N)N)C(=O)N[C@@H](CCSC)C(=O)N[C@@H](CCC(N)=O)C(=O)N[C@@H](CCC(=O)O)C(=O)N[C@@H](CCCCN)C(=O)N[C@@H](CCC(=O)O)C(=O)N[C@@H](CCCNC(=N)N)C(=O)N[C@@H](CC(N)=O)C(=O)N[C@@H](CCCCN)C(=O)NCC(=O)N[C@@H](CCC(N)=O)C(=O)O)[C@@H](C)O [motilin] | – | smooth muscle contractions [4]: induces smooth muscle contractions; gastric emptying and gut hormone release [5]: increase gastric emptying and gut hormone release
